# Source: patent publication US8993596B2, “4-(azacycloalkyl)benzene-1,3-diol compounds as tyrosinase inhibitors, process for the preparation thereof and use thereof in human medicine and in cosmetics” (Galderma Research & Development, priority 2008, dated 2015)
# Experiments:
# [1] = system: MNT1 human melanoma cells; assay: Melanogenesis inhibition assay (14C-thiouracil incorporation); assay type: cell-based; settings: MNT-1, 24 h at 37° C., 14C incorporation standardized through 3H incorporation
# Protocol: (§1) The inhibition of melanogenesis is measured in MNT1 human melanoma cells according to a protocol adapted from Reigner et al., Cell Mol Biol (1999) 45: 969-980. The assay is based on the concomitant incorporation of 2 radiolabelled tracers: ^14C-thiouracil is incorporated into the neosynthesized melanin and reflects melanogenesis, whereas ^3H-leucine is incorporated into the proteins and reflects cell viability and, consequently, the toxicity of the compounds tested.
# (§2) The MNT1 cells are seeded into 96-well plates in the presence of the test compounds and of the radioisotopes. After incubation for 24 h at 37° C., the cells are washed and the amount of the 2 radioisotopes is measured. The test compounds are evaluated in terms of dose-response so as to calculate an IC50 for inhibition of melanogenesis on the basis of the ^14C incorporation which is standardized through the ^3H incorporation. An IC50 for cell toxicity is also calculated on the basis of the ^3H incorporation.
# [2] = system: MNT1 human melanoma cells; assay: Cell toxicity (3H-leucine incorporation) in the melanogenesis assay; assay type: cell-based; settings: MNT-1, 24 h at 37° C.
# Protocol: as §1, §2
# tyrosinase = tyrosinase (Mus musculus (Mouse), UniProt P11344); assay: Tyrosinase activity inhibition assay (B16F1 cell lysate); assay type: biochemical, murine; settings: lysate of B16F1 cells, L-tyrosine substrate, MBTH, reading at 520 nm after 6 hours at 37° C.; read-out: Tyrosine hydroxylase/ Dopa oxidase IC50
# Protocol: The activity of the inhibitors is measured using a lysate of B16F1 cells (murine melanoma line). In the presence of the L-tyrosine substrate, the tyrosinase present in these cells catalyses the hydroxylation of L-tyrosine to give L-DOPA and then the oxidation of the L-DOPA to give dopaquinone. In the presence of MBTH (3-methyl-2-benzothiazolinone hydrazone), the dopaquinone is trapped so as to form a pink complex which absorbs at 520 nm.
# The B16F1 cells are cultured in DMEM medium+10% foetal calf serum+10^−9 M α-MSH for 4 days at 37° C. under 7% CO2. They are treated with trypsin, washed in PBS, counted and pelleted. The pellet is taken up at 10^7 cells/ml in lysis buffer (10 mM sodium phosphate, pH 6.8-1% Igepal) and the suspension is treated with ultrasound for 10 seconds. After centrifugation for 30 minutes at 4000 rpm, the supernatant obtained constitutes the cell lysate used as tyrosinase source in the enzymatic assay.
# The assays are carried out in duplicate in 384-well plates in a total volume of 50 μl. […]
# The plate is incubated at 37° C. and a spectrophotometric reading is carried out at 520 nm after 6 hours of incubation. In order to avoid any possible absorption of the products, the system uses corrected absorbance (absorbance at time 6 h—absorbance at time zero). […]
# Chain of tyrosinase (P11344 19-533): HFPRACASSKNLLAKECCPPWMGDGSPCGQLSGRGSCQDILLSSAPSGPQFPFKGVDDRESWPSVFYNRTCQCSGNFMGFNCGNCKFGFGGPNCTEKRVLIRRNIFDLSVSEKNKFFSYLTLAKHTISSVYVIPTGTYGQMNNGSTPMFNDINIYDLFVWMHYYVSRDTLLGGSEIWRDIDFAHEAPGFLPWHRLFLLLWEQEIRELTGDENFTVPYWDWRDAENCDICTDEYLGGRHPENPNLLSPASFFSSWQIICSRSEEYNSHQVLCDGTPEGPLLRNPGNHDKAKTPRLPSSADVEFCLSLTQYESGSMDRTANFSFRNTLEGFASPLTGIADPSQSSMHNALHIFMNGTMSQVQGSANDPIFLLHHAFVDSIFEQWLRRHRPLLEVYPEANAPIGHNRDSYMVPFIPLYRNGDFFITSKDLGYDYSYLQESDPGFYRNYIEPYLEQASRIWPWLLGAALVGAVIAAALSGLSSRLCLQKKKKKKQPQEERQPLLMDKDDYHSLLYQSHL
SMILES,IC50 [1] [nM],IC50 [2] [nM],IC50 (tyrosinase) [nM]
"CCCCc1ccc(O)cc1O [4-Butylresorcinol (Rucinol), 4-Butylresorcinol, reference compound]",15000,55000,–
"C[C@H](NC(=O)N1CCC(c2ccc(O)cc2O)CC1)c1ccccc1 [Compound 24, 4-(2,4-dihydroxyphenyl)piperidine-1-carboxylic acid ((S)-1-phenylethyl)amide]",300,> 999000,150
"O=C([C@@H](O)c1ccccc1)N1CCC(c2ccc(O)cc2O)CC1 [Compound 48, (S)-1-[4-(2,4-dihydroxyphenyl)piperidin-1-yl]-2-hydroxy-2-phenylethanone]",700,> 999000,200
